From PMC6128854 (Scientific Reports, 2018) come the findings set out here.

The test has as its target N-type calcium channel currents (Cav2.2) in rDRG neurons (Rattus norvegicus, UniProt Q02294). The experiment in a line: cell-based. The note with it: SEM.

SMILES strings stand for the structures. Positions of bridges follow the written chain, without caps; N, C: chain ends. Non-standard residues stand in square brackets, D forms with d. Residues, ends and D or L forms follow the SMILES beside them. Hyp = O=C(O)[C@@H]1C[C@@H](O)CN1

Sequence of N-type calcium channel currents (Cav2.2) in rDRG neurons (Q02294 whole entry, looked up): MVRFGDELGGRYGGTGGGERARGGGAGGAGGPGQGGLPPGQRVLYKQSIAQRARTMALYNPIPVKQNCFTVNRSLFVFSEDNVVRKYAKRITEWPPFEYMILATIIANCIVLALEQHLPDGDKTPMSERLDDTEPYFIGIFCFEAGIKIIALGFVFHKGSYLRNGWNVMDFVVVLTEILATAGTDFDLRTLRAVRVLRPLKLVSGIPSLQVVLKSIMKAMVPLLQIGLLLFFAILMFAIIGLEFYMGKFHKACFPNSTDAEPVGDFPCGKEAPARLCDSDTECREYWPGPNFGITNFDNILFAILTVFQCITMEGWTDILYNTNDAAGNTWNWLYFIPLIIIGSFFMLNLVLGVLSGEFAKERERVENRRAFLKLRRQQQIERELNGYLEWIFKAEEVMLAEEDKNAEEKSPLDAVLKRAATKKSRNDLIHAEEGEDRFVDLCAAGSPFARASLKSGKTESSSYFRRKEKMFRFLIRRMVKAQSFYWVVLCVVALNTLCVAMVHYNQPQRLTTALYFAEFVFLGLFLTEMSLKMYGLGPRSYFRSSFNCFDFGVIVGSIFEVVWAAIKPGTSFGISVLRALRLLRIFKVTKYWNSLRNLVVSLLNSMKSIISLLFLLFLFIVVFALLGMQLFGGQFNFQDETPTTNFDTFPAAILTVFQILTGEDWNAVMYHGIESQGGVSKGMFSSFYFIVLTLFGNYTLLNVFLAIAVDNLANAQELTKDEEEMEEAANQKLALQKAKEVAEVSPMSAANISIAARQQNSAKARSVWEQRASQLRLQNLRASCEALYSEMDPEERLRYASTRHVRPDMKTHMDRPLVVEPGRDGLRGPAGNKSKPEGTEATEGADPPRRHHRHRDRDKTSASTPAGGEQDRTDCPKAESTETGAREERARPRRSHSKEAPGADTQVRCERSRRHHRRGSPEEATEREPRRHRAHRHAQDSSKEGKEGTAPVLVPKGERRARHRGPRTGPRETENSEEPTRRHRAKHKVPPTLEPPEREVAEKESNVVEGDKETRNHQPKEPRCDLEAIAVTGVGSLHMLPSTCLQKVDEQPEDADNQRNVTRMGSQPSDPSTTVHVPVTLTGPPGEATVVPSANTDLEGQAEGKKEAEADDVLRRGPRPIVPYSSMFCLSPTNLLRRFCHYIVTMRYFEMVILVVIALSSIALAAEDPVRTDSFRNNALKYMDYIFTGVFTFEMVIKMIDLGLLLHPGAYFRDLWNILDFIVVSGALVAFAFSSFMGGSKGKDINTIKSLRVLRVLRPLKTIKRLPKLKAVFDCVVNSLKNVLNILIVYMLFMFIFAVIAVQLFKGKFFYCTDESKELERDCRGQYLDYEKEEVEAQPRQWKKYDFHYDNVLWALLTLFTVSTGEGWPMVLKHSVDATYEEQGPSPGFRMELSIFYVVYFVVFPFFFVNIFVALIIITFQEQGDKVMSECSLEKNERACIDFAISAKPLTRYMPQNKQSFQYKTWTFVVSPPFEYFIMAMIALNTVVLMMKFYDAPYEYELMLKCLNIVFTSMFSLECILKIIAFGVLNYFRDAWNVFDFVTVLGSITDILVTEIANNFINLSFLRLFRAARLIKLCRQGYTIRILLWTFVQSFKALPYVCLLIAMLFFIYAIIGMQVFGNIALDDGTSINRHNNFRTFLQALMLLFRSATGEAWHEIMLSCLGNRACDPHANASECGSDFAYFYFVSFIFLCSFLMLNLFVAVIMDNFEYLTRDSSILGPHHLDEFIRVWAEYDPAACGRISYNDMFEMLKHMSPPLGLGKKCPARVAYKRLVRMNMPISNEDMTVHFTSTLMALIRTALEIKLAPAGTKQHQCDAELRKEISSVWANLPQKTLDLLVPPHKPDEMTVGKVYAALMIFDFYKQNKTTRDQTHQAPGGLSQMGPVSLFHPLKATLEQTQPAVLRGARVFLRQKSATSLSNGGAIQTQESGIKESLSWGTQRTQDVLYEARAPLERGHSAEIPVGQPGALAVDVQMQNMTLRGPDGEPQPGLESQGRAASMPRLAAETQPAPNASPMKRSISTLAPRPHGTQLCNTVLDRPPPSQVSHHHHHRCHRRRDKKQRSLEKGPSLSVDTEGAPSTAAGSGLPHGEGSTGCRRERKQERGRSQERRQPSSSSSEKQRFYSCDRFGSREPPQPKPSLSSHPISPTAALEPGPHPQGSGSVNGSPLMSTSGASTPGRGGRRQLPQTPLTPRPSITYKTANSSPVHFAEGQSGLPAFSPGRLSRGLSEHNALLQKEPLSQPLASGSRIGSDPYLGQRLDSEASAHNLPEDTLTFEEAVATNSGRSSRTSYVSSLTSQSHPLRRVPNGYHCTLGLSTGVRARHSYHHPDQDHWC

`CC[C@H](C)[C@@H]1NC(=O)[C@@H]2CSSC[C@@H]3NC(=O)[C@H](CCCCN)NC(=O)[C@H](CO)NC(=O)CNC(=O)[C@@H]4C[C@@H](O)CN4C(=O)[C@@H]4CCCN4C(=O)[C@H](CCCCN)NC(=O)[C@@H](N)CSSC[C@H](NC(=O)[C@H](CSSC[C@@H](C(=O)N[C@@H](CCCNC(=N)N)C(=O)N[C@@H](CCCCN)C(=O)N[C@@H](Cc4ccc(O)cc4)C(=O)N[C@@H](Cc4ccc(O)cc4)C(=O)O)NC(=O)[C@H](CCCNC(=N)N)NC(=O)[C@H](CCCCN)NC(=O)[C@H]([C@@H](C)O)NC(=O)[C@H](Cc4ccc(O)cc4)NC(=O)[C@H](CO)NC1=O)NC(=O)[C@H](CC(=O)O)NC(=O)[C@H](Cc1ccc(O)cc1)NC(=O)[C@H](CCSC)NC(=O)[C@H](CO)NC(=O)[C@@H]1C[C@@H](O)CN1C(=O)[C@H](CO)NC3=O)C(=O)N[C@@H]([C@@H](C)O)C(=O)N[C@@H]([C@@H](C)O)C(=O)N2` [MoVIB-[R13Y]] (H-CKP[Hyp]GSKCS[Hyp]SMYDCCTTCISYTKRCRKYY-OH; disulfide 1-16, 8-19, 15-26): the half-inhibitory concentration (IC50) (in general, the concentration at which inhibition is half-maximal) was found to be 900 ± 130 nM.
